The text below walks through data of US20240190865A1, “T-TYPE CALCIUM CHANNEL ANTAGONISTS AND USES THEREOF” (THE BOARD OF TRUSTEES OF THE LELAND STANFORD JUNIOR …, priority 2021, published 2024).

The subject of assay [1] is Miro1. Kind of assay: Miro1 fibroblast assay (CCCP challenge, Miro1 Western blot). The note with it: skin fibroblasts from human Parkinson's disease patients, CCCP 40 μM 24 hr; read-out: Fibroblast IC50 (nM), Miro1 reduction. The format is cell-based. How it is done:
Fibroblast Challenge and Miro1 Western blot: Skin fibroblasts were obtained from human Parkinson's disease (PD) patients. CCCP was applied at 40 μM for 24 hr to fibroblasts before cells were lysed in RIPA lysis buffer with 0.25 mM PMSF and protease inhibitors. Lysates were cleared by centrifugation at 17,000×g for 10 min at 4° C., and supernatants were run in an SDS-PAGE for Western blotting. After electrophoresis, nitrocellulose membranes (Bio-Rad) were used in wet transfer. Transferred membranes were first blocked for 1 hr in phosphate-buffered saline (PBS) containing 5% fat-free milk and 0.1% tween-20, and then incubated with the following primary antibodies: rabbit anti-Miro1 (HPA010687, Sigma-Aldrich) at 1:1,000, mouse anti-ATP50 (AB14730, Abcam) at 1:5,000, mouse anti-β-Actin (A00702, Genscript) at 1:3,000, or rabbit anti-VDAC (4661S, Cell Signaling Technology) at 1:1,000 at 4° C. overnight in blocking buffer. West Dura ECL reagents (GE Healthcare) were used for ECL immunoblotting with HRP-conjugated goat anti-mouse or anti-rabbit, anti-mouse IgG (Jackson ImmunoResearch Laboratories) at 1:5-10,000. Membranes were exposed to UltraCruz autoradiography films (Santa Cruz Biotechnology) and developed on a Konica Minolta SRX-101A developer.
T-type calcium channel antagonists that could reduce Miro1 level were tested in the above PD fibroblast assay.

Assay [2] relates to Miro1. Put plainly: Miro1 reduction after compound administration, Western blot. The assay is classed as cell-based. The note with it: Western blot method.
Assay [3] has as its system mutant SNCA flies. Kind of assay: Parkinson's disease fly model, locomotion (negative geotaxis Performance Index). The assay is classed as in vivo. To be noted: PD fly model (mutant SNCA flies), 2.5 μM in feed for 10 days. How it is done:
The Parkinson's disease (PD) fly model was used as described in Hsieh C-H, Li L, Vanhauwaert R, Nguyen KT, Davis M D, Bu G, et al. Miro1 Marks Parkinson's Disease Subset and Miro1 Reducer Rescues Neuron Loss in Parkinson's Models. Cell Metab. 2019; 1131-1140. The average Performance Index (PI) (negative geotaxis) was evaluated. Briefly, adult flies were gently tapped to the base of a modified 25 ml climbing tube and their climbing progress was recorded after 45 sec. Three populations of flies were assessed, and for each population, flies were examined 3 times per experiment. The recorded values were used to calculate the average PI.
Feeding PD Flies with a Calcium Channel Blocker Rescues Locomotion Deficits. Benidipine was tested in a PD fly model (mutant SNCA flies) and the flies examined for their locomotion.

The IC50 is the concentration at which inhibition is half-maximal.

On to `O=C(c1cc(S(=O)(=O)Nc2ccccc2F)c(F)cc1Cl)N1CCN2CCC[C@@H]2C1` [ABT-639, 5-[(8aR)-3,4,6,7,8,8a-hexahydro-1H-pyrrolo[1,2-a]pyrazine-2-carbonyl]-4-chloro-2-fluoro-N-(2-fluorophenyl)benzenesulfonamide], for which, in assay [1], the IC50 came out at 5410 nM. Besides, the “Miro1 Lowering” value in assay [2] is given as “YES”.
The like results for `N#Cc1ccc(Cn2ccc(NC(=O)Cc3ccc(C4(C(F)(F)F)CC4)cc3)n2)nc1` [ACT-709478, N-(1-((5-cyanopyridin-2-yl)methyl)-1H-pyrazol-3-yl)-2-(4-(1-(trifluoromethyl)cyclopropyl)phenyl)acetamide] were, in that order, 3930 nM and “YES”.
Take `COC(=O)C1=C(C)NC(C)=C(C(=O)OC2CCCN(Cc3ccccc3)C2)C1c1cccc([N+](=O)[O-])c1` (stereo not shown) [Benidipine, 1,4-dihydro-2,6-dimethyl-4-(3-nitrophenyl)-3,5-pyridine-dicarboxylic acid methyl 1-(phenylmethyl)-3-piperidinyl ester]: the “locomotor decline / locomotion deficits” value in assay [3] is given as “significantly improved locomotor decline”; in assay [3] (listed as benidipine), “rescuing locomotor deficits”. Further, the IC50 in assay [1] turned out to be 2560 nM. For the same molecule, in assay [2], the “Miro1 Lowering” value is “YES”.
For `CC(C)c1ccc(CC(=O)N[C@H](C)c2ccc(OCC(F)(F)F)cn2)cc1` [MK-8998, (R)-2-(4-Isopropylphenyl)-N-(1-(5-(2,2,2-trifluoroethoxy)pyridin-2-yl)ethyl)acetamide], in assay [1], the IC50 is 693 nM. Moreover, in assay [2], the “Miro1 Lowering” value was “YES”.
